{"source": "paper PMC9380258", "about": "“Primary and secondary functions of HLA-E are determined by stability and conformation of the peptide-bound complexes” (Cell Reports, 2022)", "key": {"HLA-E [1]": {"system": "HLA-E", "format": "binding, human"}, "HLA-E [2]": {"system": "HLA-E", "format": "binding, human", "remark": "listed apart in the source"}, "HLA-E*01:03": {"target": "HLA-E*01:03 (Homo sapiens, UniProt P13747)", "assay": "SEC-SAXS of peptide-refolded HLA-E*01:03 complexes"}}, "data": [{"sequence": "RMAATAVVL [Mtb14 P7V]", "values": [{"measurement": "increase in the ELISA-based binding signal", "setting": "HLA-E [1]", "result": 36, "unit": "%"}, {"measurement": "increase in thermal stability", "setting": "HLA-E [2]", "result": 3.6, "unit": "°C"}, {"measurement": "decrease in the Rg", "setting": "HLA-E*01:03", "result": 6.8, "unit": "Å"}, {"measurement": "decrease in the dmax", "setting": "HLA-E*01:03", "result": 23, "unit": "Å"}]}]}
